Data reported in patent US20250250265A1, “BENZOTHIAZOLE-PHENYLSULFONYL-PIPERIDINE ANALOGS AS ACTIVATORS OF NACYLPHOSPHATIDYLETHANOLAMINE HYDROLYZING PHOSPHOLIPASE D” (priority 2022, published 2025).
Several values for one entry are separate records, joined by “and”; a condition that tells them apart may be missing. Identical values can stand only once. Like-named read-outs stand apart in the source and are kept apart here. Marks after values point to notes of the source that are not given here.

Columns and labels:
[1] = biological target: T1, recombinant mouse NAPE-PLD (Mus musculus, UniProt Q8BH82); assay: In vitro fluorescence NAPE-PLD activity assay (HTS/CRC) with recombinant mouse NAPE-PLD and PED-A1; type: biochemical; conditions: for Emax (95% Cl): Table 4, maximal efficacy as fold increase in NAPE-PLD activity versus vehicle only
T1 construct: hexahistidine (His6) (C); made in house; host or cells: E. coli
T1 sequence (Q8BH82 1-396): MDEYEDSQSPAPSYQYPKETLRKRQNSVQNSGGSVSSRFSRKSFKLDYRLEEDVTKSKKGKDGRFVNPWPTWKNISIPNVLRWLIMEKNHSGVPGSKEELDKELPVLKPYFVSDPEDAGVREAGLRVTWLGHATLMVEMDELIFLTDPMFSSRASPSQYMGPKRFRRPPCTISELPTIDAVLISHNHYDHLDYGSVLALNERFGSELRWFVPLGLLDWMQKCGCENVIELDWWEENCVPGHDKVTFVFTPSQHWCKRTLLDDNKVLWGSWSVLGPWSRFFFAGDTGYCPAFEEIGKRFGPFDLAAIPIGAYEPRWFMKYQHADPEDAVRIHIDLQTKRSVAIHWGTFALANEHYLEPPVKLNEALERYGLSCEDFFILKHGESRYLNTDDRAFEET
Experimental: Using the fluorogenic NAPE substrate, PED-A1, and recombinant mouse NAPE-PLD (rNAPE-PLD), an in vitro high-throughput (HTS) assay was conducted to screen ˜40,000 compounds for their ability to modulate NAPE-PLD activity. The HTS assay enabled the detection of both NAPE-PLD activators and inhibitors. […] Initial structure-activity response studies with the top hits identified benzothiazole phenylsulfonyl-piperidine carboxamide analogs (BT-PSP analogs) as lead compounds for NAPE-PLD activators (Table 1). The lead BT-PSP analog identified, VU534, induces 50% of its activation effect on NAPE-PLD at 270 nM (AC50 270 nM), and induces a maximal effect of 195% of basal NAPE-PLD activity (Table 1).
In vitro fluorescence NAPE-PLD activity assays using recombinant NAPE-PLD and either PED-A1 or flame-NAPE as fluorogenic substrate were performed as previously described except with small modifications as noted below. See Aggarwal et al., J. Biol. Chem. 295(21): 7289-7300 (2020); Zarrow et al., J. Lipid Res. 63(1): 100156 (2022).
For the HTS assays, test compounds were incubated with recombinant enzyme for 1 h prior to adding PED-A1 (final 0.4 μM) mixed with N-palmitoyl-dioleoyl-PE (final 3.6 μM) to adjust for the high sensitivity of the Panoptic instrument (WaveFront Biosciences). Assays used black-wall, clear-bottom, non-sterile, and non-treated 384-well plates (Greiner Bio-One 781906). The assay was read in kinetic fluorescence mode on the Panoptic instrument for 4 min and the slope of the signal from 30-100 s was used for analysis. A total of 39,328 compounds from the Vanderbilt Discovery Collection were tested, each at 10 μM. The tested compounds were chosen to represent a structurally diverse selection from the full library. Each 384-well plate included 320 test compound wells and 64 control wells. Unlike previous pilot screening assays, bithionol (10 μM final) was used in place of lithocholic acid (100 μM final) as the inhibitor control. Before performing high-throughput screening, a checkerboard assay was performed to validate the assay parameters. This yielded a Z′ score of 0.676. Z′ scores were also calculated for each plate during screening, and plates with scores <0.5 were re-run. The average Z′ across all screening plates was 0.52, and the total hit rate was 3.6%. B-scores were calculated from the initial slopes across each plate using WaveGuide software (WaveFront Biosiences). Modulator hits were defined as compounds with absolute B-scores of 3 or higher. The number of compounds in various B-score ranges were as follows: […], 12 compounds; −10 to −5, 221 compounds; −5 to −3, 770 compounds; −3 to 3, 37924 compounds; 3 to 4, 314 compounds; 4 to 6, 70 compounds; 6 to 10, 15 compounds. Activator hits with B-scores of >3 were selected for the replication assay and a selection of analogs of the activators.
Concentration response curve (CRC) experiments used the same assay conditions as the HTS assay, except that graded concentrations of each test compound were used, with total amount of vehicle (DMSO) kept constant. CRC experiments with purified recombinant mouse NAPE-PLD were performed on two separate days, with values from each day normalized to vehicle only controls on same plate, and then all normalized values from both days averaged together. CRC experiments with human NAPE-PLD represent value from only a single day, due to limited amounts of this recombinant enzyme.

[2] = biological target: T2, NAPE-PLD activity of HepG2 cells (Homo sapiens, UniProt Q6IQ20); assay: Cell-based NAPE-PLD activity in HepG2 cells (flame-NAPE); conditions: Table 3; 10 μM
T2 construct: endogenous in cells; host or cells: HepG2
T2 sequence (Q6IQ20 whole entry): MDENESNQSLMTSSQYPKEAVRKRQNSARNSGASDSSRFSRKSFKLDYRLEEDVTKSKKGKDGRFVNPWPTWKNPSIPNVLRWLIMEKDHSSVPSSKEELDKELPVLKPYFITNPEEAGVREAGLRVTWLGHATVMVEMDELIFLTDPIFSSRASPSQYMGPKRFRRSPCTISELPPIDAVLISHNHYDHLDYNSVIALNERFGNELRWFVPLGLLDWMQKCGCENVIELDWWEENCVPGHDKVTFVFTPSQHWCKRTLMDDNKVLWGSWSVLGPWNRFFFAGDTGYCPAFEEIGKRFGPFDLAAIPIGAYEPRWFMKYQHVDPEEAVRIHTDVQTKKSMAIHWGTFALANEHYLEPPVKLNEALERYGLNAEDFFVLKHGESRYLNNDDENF
Experimental: In vitro models of the hepatic steatosis of non-alcoholic fatty liver disease (NAFLD) are well-established, with the primary method being incubation of primary human hepatocytes or hepatocyte cell lines such as HepG2, HuH7, HepaRG, with oleic acid and palmitic acid for 24 to 48 h, then measuring the resulting steatosis, lipid peroxidation, apoptosis, and inflammatory gene expression. Using flame-NAPE to measure NAPE-PLD activity in the human hepatoma HepG2 cell line, the experimental data confirmed that VU534 activated NAPE-PLD in human cells (AC50 940 nM; max % bA 155%). Bithionol (10 μM) reduced HepG2 flame-NAPE hydrolysis by >67%.
NAPE-PLD activity was measured in cells as previously described, except that FluoroBrite DMEM (Gibco A1896701) was used as media. See Zarrow et al., J. Lipid Res. 63(1): 100156 (2022). For RAW264.7 assays, PED-A1 (3.6 μM final) was used as the substrate with 10 μM orlistat added to inhibit PLA1 activity, while for HepG2 cells, flame-NAPE was used (with no orlistat added).

[3] = biological target: T3, Fatty Acid Amide Hydrolase (FAAH) (Homo sapiens, UniProt O00519); assay: FAAH activity assay (Cayman Chemicals); type: biochemical; conditions: Table 3; 33 μM
T3 construct: purchased Cayman Chemicals
T3 sequence (O00519 1-579): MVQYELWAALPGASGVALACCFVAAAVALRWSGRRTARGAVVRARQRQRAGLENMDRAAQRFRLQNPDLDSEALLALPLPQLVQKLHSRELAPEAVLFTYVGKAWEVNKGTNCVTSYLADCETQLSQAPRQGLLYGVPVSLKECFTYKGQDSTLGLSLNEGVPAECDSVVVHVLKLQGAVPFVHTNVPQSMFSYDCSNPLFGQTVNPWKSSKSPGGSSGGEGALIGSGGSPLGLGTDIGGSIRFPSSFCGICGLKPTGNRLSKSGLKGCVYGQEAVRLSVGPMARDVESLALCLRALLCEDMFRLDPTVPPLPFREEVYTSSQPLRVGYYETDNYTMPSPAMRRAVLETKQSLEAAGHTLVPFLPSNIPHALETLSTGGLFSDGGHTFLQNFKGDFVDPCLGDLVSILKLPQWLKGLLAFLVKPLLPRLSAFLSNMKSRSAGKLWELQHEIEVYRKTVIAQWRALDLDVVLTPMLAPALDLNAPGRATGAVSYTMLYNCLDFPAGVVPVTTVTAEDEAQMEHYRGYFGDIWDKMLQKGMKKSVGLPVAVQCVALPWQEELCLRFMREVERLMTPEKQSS
Experimental: Concentration response curves were plotted for VU534 for the enzymes fatty acid amide hydrolase (FAAH) and soluble epoxide hydrolase (sEH).
The fluorescence interference assay was performed using the same method as the HTS assay, but with BODIPY-FL C5 (Thermo Fisher Scientific) used in place of PED-A1. sEH and FAAH activity assays were performed according to the manufacturer's specifications (Cayman Chemicals).

[4] = test system: RAW264.7 mouse macrophages; assay: Cytotoxicity (MTT) in RAW264.7 macrophages; type: cell-based; conditions: Table 3; 33 μM
Experimental: (§1) Cytotoxicity was measured using MTT as previously described except that the studies used 96-well plates with 100 μL of 0.3 mg/mL MTT solution was added after 24 h of treatment and then replaced after 3 h with 0.1 M HCl in isopropanol. See Aggarwal et al., J. Biol. Chem. 295(21): 7289-7300 (2020). Viability was expressed as percent absorbance at 560 nm relative to vehicle controls.

[5] = test system: HepG2 human hepatocytoma cells; assay: Cytotoxicity (MTT) in HepG2 cells; type: cell-based; conditions: Table 3; 33 μM
Experimental: as §1

[6] = Table 2, maximal induced activity for recombinant NAPE-PLD compared to basal (100%), read-out: Emax (%)
[7] = Table 3, read-out: In vitro EC50
[8] = Table 3, read-out: In vitro Emax (100% activity is baseline activity of vehicle only)

| Compound | EC50 [1, 7] | Emax [1, 8] | Emax (95% Cl) [1] | other results |
| --- | --- | --- | --- | --- |
| Cc1cccc2sc(NC(=O)C3CCN(S(=O)(=O)c4ccc(F)cc4)CC3)nc12 [VU231] | 1100 nM | 168% | 2.0^d fold | AC50 (nM) ([1]; Table 1, concentration for 50% maximum activation from basal activity (no activator)): Not active; Max % bA (%) ([1]; Table 1, maximum induced activity compared to basal (100%) activity): <120%; Emax [1, 6]: < 120%; EC50 (μM) ([1]; Table 2, rNAPE-PLD activity assay): Inactive |
| Cc1cc(F)ccc1S(=O)(=O)N1CCC(C(=O)Nc2nc3ccccc3s2)CC1 [VU205] | – | – | <1.2 fold | – |
| COc1cccc2sc(NC(=O)C3CCN(S(=O)(=O)c4ccc(F)cc4)CC3)nc12 [VU485] | 29000 nM | 232% | 2.0 (1.8-4.0) fold | – |
| COc1ccc2nc(NC(=O)C3CCN(S(=O)(=O)c4ccc(F)cc4)CC3)sc2c1 [VU484] | 2600 nM | 162% | 2.1 (2.0-2.2) fold | – |
| Cc1cc(F)ccc1S(=O)(=O)N1CCC(C(=O)Nc2nc3c(C)cccc3s2)CC1 [VU212] | ~2900 nM | ~151% | 1.6 (1.5-1.6) fold | In-cell NAPE-PLD activity in HepG2 (10 μM) with PED-A1 or flame-NAPE as substrate [2]: 197% and 268%; Remaining FAAH Activity (33 μM) [3]: 61% and 79%; % viability RAW 264.7 (33 μM) [4]: 32% and 56%; % HepG2 viability (33 μM) [5]: 66% and 69% |
| O=C(Nc1nc2ccccc2s1)C1CCN(S(=O)(=O)c2ccc(F)cc2)CC1 [VU488] | 390 nM | 136% | 1.7 (1.6-1.8) fold | Emax [1, 6]: 135%; EC50 ([1]; Table 2, rNAPE-PLD activity assay, read-out: EC50): 390 nM |
| COc1ccc(S(=O)(=O)N2CCC(C(=O)Nc3nc4ccc(C)cc4s3)CC2)cc1 [VU601] | ~1000 nM | 171% | 1.8 (1.8-1.9) fold | – |
